The values that follow come from patent publication US11661433B2, “Near-IR activatable fluorescent small molecules with dual modes of cytotoxicity” (VIRGINIA COMMONWEALTH UNIVERSITY, priority 2018, dated 2023).

Structures are written as SMILES. Like-named read-outs stand apart in the source and are kept apart here.

Data set [1] deals with C-33 A (human cervical carcinoma). In words: MTT assay, C-33 A cells. Type of data set: cell-based.
Protocol: (§1) MTT assay: Cytotoxic profiles of the compounds were assessed in the following cell lines (passage number not exceeding 15): MCF-7 (human breast cancer) C-33 A (human cervical carcinoma) and HEK293T (transformed human kidney). Around 6000 cells were seeded in 96 well transparent flat-bottom tissue-culture plate in 200 μl of Dulbecco's Modified Eagle Medium (DMEM) containing 10% FBS (Fetal Bovine Serum) and were incubated for 24 h at 37° C. and 5% CO2. We performed an initial control experiment with vehicle alone (0.1% DMSO-DMEM) on cells with different dosages of near-IR light and compared it to unexposed counterparts. […] One such plate was exposed to near-IR light for 45 min in phenol-red free DMEM (200 μl) and room temperature was maintained using a cooling system. Another identical plate was kept in dark. The plates were incubated for another 24 h in dark. Finally, MTT [3-(4,5-dimethylthiazole-2-yl)-2,5-diphenyltetrazolium bromide] (25 μl of 5 mg/ml solution in PBS) was added and incubated for 3-4 h. The absorbance of the precipitated formazan was recorded at 550 nm in DMSO. Cells treated with 0.1% DMSO-DMEM was kept as controls which represented 100% viability. The half-growth inhibitory concentration (IC50) values were calculated by nonlinear regression analysis using GraphPad Prism5. The data is represented from two independent set of experiments, each of which was performed in triplicate.
Data set [2] has as its system MCF-7 (human breast cancer). Briefly: MTT assay, MCF-7 cells. Type of data set: cell-based.
Protocol: as §1
Data set [3] has as its system ctDNA. In words: DNA bound Pt content by ICP-MS. Conditions: extended incubation with ctDNA in the dark. Type of data set: biochemical. As for the experimental part: DNA bound Pt content: A 1×-PBS solution containing ctDNA (500 μM) and 1 (50 μM in 0.1% DMSO-PBS) was irradiated with near-IR light (720-740 nm) for 15, 30 and 60 mins. Another identical set was incubated in dark for comparison. After treatment, the DNA was precipitated from the solutions using 10 mL of cooled ethanol, vortexed, and collected by centrifugation. The precipitate was washed twice with cooled ethanol (5 mL) to remove soluble platinum complexes. The white fibrous precipitate was dissolved using 200 μl of conc. HNO3 for 12 h and diluted with distilled water to 2% HNO3-water solutions. Platinum content was measured by ICP-MS instrument. Untreated samples (DNA alone, complex alone) were kept for control. Platinum standards were made by dissolving K2PtCl4 in 98% aq. HNO3 and used for calibration. The data along with the deviation is reported based on experiments performed in duplicate.

Data set [4] in a line: Photodecomposition and dark stability (absorbance, LC-MS). The conditions noted are these: buffer, pH 7.4. Type of data set: physicochemical. As to the method: High performance liquid chromatography: For verifying purity, samples (25 μl in 2.5% DMSO-H2O) were loaded on an analytical C18 column and gradient was maintained at 10-100 percent of MeCN—H2O from 10-50 min. The absorbance was measured at different wavelengths within the range of 200-800 nm. For photolysis experiments, solution of 1 (30 μl of 100 nM in 0.01% of DMSO-PBS, irradiated for 1 min) was injected on the column and eluted using the same gradient as above.
Liquid-chromatography mass spectral experiments: Solutions of 1 and IR797-acac (100 nM in 0.01% DMSO-PBS) were used to carry out LC-MS studies. Samples were injected on a self-packed fused silica (polymicro technologies) trap column (360 micron o.d.×100 micron i.d.) with a Kasil frit packed with 5-15 micron irregular phenyl C-18 YMC packing. The trap column is connected to an analytical column (360 micron×50 micron) with a fritted tip at 5 micron or less (New Objective) packed with 5 μm phenyl C-18 YMC packing. Compounds were initially trapped and then eluted into a Thermo Finnigan LCQ deca XP max mass spectrometer (Thermo Scientific) with an acetonitrile gradient from 0% to 80% over 5 minutes at a flow rate of between 50-150 nl/min. […]

A short description of another data set: Solubility in solvents. Type of data set: physicochemical. As for the experimental part: Synthesis of IR797-acac: IR797 chloride (250 mg, 0.49 mmol), acetylacetone (245 μl, 2.45 mmol) and N,N-diisopropylethylamine (90 μl, 0.49 mmol) were dissolved in acetonitrile (10 mL) in a sealed vial. The dark green colored solution was heated at 70° C. on a microwave apparatus (Discover, CEM, 60 W) for 15 mins. The progress of the reaction was monitored via TLC and stopped only after full consumption of the starting dye. The reaction mixture was allowed to cool down to room temperature and dichloromethane (50 mL) was added. The organic layer was washed using saturated sodium bicarbonate solution (2×10 ml), dried over anhydrous sodium sulfate, filtered, and evaporated using a rotavac. The crude material was subjected to column chromatography using ethyl acetate (100%) and dichloromethane-methanol eluents (0-10%) to yield pure product, IR797-acac (150 mg, 50% yield). ^1H NMR (400 MHz, CDCl3): δ (ppm)=7.43-7.36 (m, 4H), 7.31 (d, J=7.4 Hz, 2H), 7.21 (t, J1=J2=7.2 Hz, 2H), 7.11 (d, J=8.0 Hz, 2H), 6.20 (d, J=14 Hz, 2H), 3.74 (s, 6H), 3.15 (s, 4H), 2.00 (s, 6H), 1.58 (s, 12H). ^13C NMR (100 MHz, CDCl3): δ (ppm)=191.42, 170.78, 144.66, 142.96, 140.71, 137.40, 128.80, 124.99, 122.04, 110.04, 103.39, 48.82, 32.53, 28.42, 23.60. ESI-MS in MeCN: m/z (expected)=533.33, m/z (observed)=533.32 [M-Cl]^+ (100%). […]

The next data set relates to human cancer cell lines. In words: MTT cytotoxicity in a panel of human cancer cell lines. Type of data set: cell-based. The conditions noted are these: dark, similar conditions. As for the experimental part: MTT assay: Cytotoxic profiles of the compounds were assessed in the following cell lines (passage number not exceeding 15): MCF-7 (human breast cancer) C-33 A (human cervical carcinoma) and HEK293T (transformed human kidney). Around 6000 cells were seeded in 96 well transparent flat-bottom tissue-culture plate in 200 μl of Dulbecco's Modified Eagle Medium (DMEM) containing 10% FBS (Fetal Bovine Serum) and were incubated for 24 h at 37° C. and 5% CO2. We performed an initial control experiment with vehicle alone (0.1% DMSO-DMEM) on cells with different dosages of near-IR light and compared it to unexposed counterparts. The cells were unharmed by light and vehicle alone up to 45 min of photoirradiation. Cells were treated with various concentrations of 1, 2, IR797-acac, cisplatin and an equimolar mixture of IR797-acac and cisplatin in 0.1% DMSO-DMEM for 4 h or 48 h in the dark. One such plate was exposed to near-IR light for 45 min in phenol-red free DMEM (200 μl) and room temperature was maintained using a cooling system. Another identical plate was kept in dark. The plates were incubated for another 24 h in dark. Finally, MTT [3-(4,5-dimethylthiazole-2-yl)-2,5-diphenyltetrazolium bromide] […] The absorbance of the precipitated formazan was recorded at 550 nm in DMSO. […] The half-growth inhibitory concentration (IC50) values were calculated by nonlinear regression analysis using GraphPad Prism5. […]

The subject of data set [5] is ctDNA. In words: DNA melting experiments and Hoechst displacement assays. Type of data set: binding. Conditions: in the dark. As for the experimental part: DNA thermal denaturation experiments: The DNA thermal denaturation experiments were performed by monitoring the absorption intensity of ct-DNA (200 μM) at 260 nm at increasing temperatures (from 40 to 90° C.), both in the absence and presence of complex 1 and IR797-acac (20 μM in 1% DMSO-DPBS solutions, pH=7.2). The experiments were performed using Agilent UV-visible spectrophotometer connected to a Peltier thermostat for temperature control. Data was recorded with increasing the temperature of the solution by 1.0° C. per min. The derivative of the melting plots gave the DNA melting temperature (Tm) of the ct-DNA. Ethidium bromide (20 μM) as a standard intercalator was used for comparison.

Consider `N.N.[Cl][Pt][Cl]` [CP, cisplatin, reference compound], for which the IC50 was 16.1 ± 1.5 µM in data set [1] (cisplatin incubated 48 h in the dark, light 45 mins, 720-740 nm, read-out: IC50 C-33 A Light); 17.7 ± 1.5 µM in data set [1] (cisplatin incubated 48 h in the dark, read-out: IC50 C-33 A Dark); 22.5 ± 3.2 µM in data set [2] (cisplatin incubated 48 h in the dark, light 45 mins, 720-740 nm, read-out: IC50 MCF-7 Light); 25 ± 2.2 µM in data set [2] (cisplatin incubated 48 h in the dark, read-out: IC50 MCF-7 Dark).
As for `CC1=CC(C)=[O+][Pt-2]([NH3+])([NH3+])[O]1.O=[N+]([O-])[O-]` (centres unmarked) [Complex 2, [Pt(NH3)2(acac)](NO3)], reference compound], in the data set on ctDNA [3], the “incorporation of Pt into DNA in the dark” value is given as “slow incorporation”.
For the compound `CC(=O)C(=C(C)O)C1=C(C=CC2=[N+](C)c3ccccc3C2(C)C)CCC1=CC=C1N(C)c2ccccc2C1(C)C.[Cl-]` [IR797-acac], the “half-life of photodecomposition t1/2^L” value in data set [4] is ~40 s. The “stability in dark t1/2^D” value in data set [4] is ~10 h. The solubility entry in the data set “Solubility in solvents” was “readily soluble in polar solvents”. The “toxicity in unexposed cells” value in the data set with human cancer cell lines is “toxic on its own”. Besides, the half-maximal inhibitory concentration (IC50) in data set [1] (4 h in dark, then light 45 mins, 720-740 nm, 3.5 ± 1.5 mW·cm^−2, read-out: IC50 C-33 A Light) was 0.3 ± 0.07 µM; in data set [1] (4 h in the dark, read-out: IC50 C-33 A Dark) it was 1.2 ± 0.1 µM; in data set [2] (4 h in dark, then light 45 mins, 720-740 nm, 3.5 ± 1.5 mW·cm^−2, read-out: IC50 MCF-7 Light), 4.7 ± 0.8 µM; in data set [2] (4 h in the dark, read-out: IC50 MCF-7 Dark) it was 5.9 ± 0.3 µM. Moreover, the DNA interaction mode result in the data set with ctDNA [5] is “interact with the minor groove of ctDNA”.
